Assay results reported in ChEMBL document CHEMBL1201862, “PubChem BioAssay data set” (2004).
Active and inactive are the calls of the source.

Columns and labels:
[1] = biological target: Transitional endoplasmic reticulum ATPase (Homo sapiens, UniProt P55072); assay: Luminescence dose response biochemical high throughput screening assay for inhibitors of the p97 ATPase: synthesized compounds. [Related pubchem assays: 1481, 1517 ]
[2] = biological target: Transitional endoplasmic reticulum ATPase (Homo sapiens, UniProt P55072, C522A); assay: Luminescence counterscreen assay for p97 inhibitors: dose response biochemical high throughput screening assay to identify inhibitors of the C522A mutant p97 ATPase: synthesized compounds. [Related pubchem assays: 1481, 1517, 1551 ]
Transitional endoplasmic reticulum ATPase (Homo sapiens, UniProt P55072, C522A), sequence (P55072 2-806 C522A limits assumed): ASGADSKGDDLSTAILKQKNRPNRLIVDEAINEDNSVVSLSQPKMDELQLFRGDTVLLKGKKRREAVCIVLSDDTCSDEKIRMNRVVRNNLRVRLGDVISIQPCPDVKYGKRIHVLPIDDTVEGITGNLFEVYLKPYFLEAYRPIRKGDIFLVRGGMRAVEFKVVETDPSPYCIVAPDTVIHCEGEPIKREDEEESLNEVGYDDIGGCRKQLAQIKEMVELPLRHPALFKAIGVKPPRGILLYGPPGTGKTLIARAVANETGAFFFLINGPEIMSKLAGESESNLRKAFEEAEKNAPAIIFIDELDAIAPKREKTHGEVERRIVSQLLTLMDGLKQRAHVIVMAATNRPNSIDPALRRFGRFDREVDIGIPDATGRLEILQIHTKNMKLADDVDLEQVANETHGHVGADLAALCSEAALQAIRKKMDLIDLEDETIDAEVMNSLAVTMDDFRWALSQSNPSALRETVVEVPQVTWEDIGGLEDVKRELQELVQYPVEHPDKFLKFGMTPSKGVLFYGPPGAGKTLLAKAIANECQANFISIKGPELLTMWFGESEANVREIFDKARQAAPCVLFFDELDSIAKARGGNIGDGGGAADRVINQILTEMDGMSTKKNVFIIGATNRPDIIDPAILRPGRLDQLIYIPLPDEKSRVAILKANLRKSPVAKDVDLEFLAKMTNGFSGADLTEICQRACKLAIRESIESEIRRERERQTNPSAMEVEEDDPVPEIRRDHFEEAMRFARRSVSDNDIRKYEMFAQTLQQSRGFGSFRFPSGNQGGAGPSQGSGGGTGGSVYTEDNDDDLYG

[3] = T. cruzi growth inhibition in host cells, dose response, cell-based, plate reader, dry powder, set 2 (AID 652275); format: functional
[4] = off-target signal loss in HeLa-CEM21 co-culture – HeLa F-luc CTL cells, cherry-picked, counter-screen for HIV-1 Env fusion inhibitor project, dose response (AID 652040); format: functional, cell-based;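 note: potency for signal decrease marking cytotoxic or nonspecific inhibition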
[5] = Luminescence Cell-Based Dose Retest to Confirm Inhibitors of Cancer Stem Cells. [Related pubchem assays (depositor defined):AID2717, AID2721]; format: functional; settings: Homo sapiens
[6] = HIV-1 AD8 envelope cell-cell fusion blockers – cherry-pick, dose response (AID 652062); format: functional, cell-based;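 note: luciferase signal from cell-cell fusion driven by HIV-1 clade B AD8 Env; potency is for inhibitors of fusion seen as a drop in luminescence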
[7] = biological target: T1, Ubiquitin-conjugating enzyme E2 N (Homo sapiens, UniProt P61088); format: functional;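 note: Dose-response confirmation in a TR-FRET assay detecting UBC13-driven polyubiquitin chain formation, inhibition measured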
T1 sequence (P61088 whole entry): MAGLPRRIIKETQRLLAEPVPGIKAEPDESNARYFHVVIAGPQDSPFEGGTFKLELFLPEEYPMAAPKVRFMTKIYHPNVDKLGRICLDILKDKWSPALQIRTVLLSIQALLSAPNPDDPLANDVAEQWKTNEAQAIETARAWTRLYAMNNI

[8] = Trypanosoma cruzi growth suppression in host cells – NIH3T3 host cells, beta-gal luminescence, confirmation (AID 2044); format: functional, cell-based;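 note: intracellular parasites grown in NIH/3T3 mouse fibroblasts as host cells; luminescent beta-galactosidase reporter signal from transgenic T. cruzi replicating inside host cells; inhibitors lower the luminescence signal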
[9] = blockers of HIV-1 envelope-mediated cell-cell fusion – cherry-pick, dose response (AID 652057); format: functional, cell-based
[10] = viability of HCT116 lacking mutant beta-catenin – cell-based, human colon tumor, dose response (AID 1045); format: functional;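 note: HCT116 colon tumor cells with beta catenin knocked out; cells exposed to compound for 60 hours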
[11] = viability loss in CEM21 cells – cell-based, CellTiter-Glo luminescence, cherry-picked, cytotoxicity control for viral fusion inhibitor project, dose response (AID 652042); format: functional;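 note: potency for signal decrease meaning cytotoxicity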
[12] = viability of PTEN-deleted HCT116 cells – cell-based, HCT116 PTEN knockout, dose response (AID 1047); format: functional;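 note: HCT116 colon tumor cells with PTEN knocked out; cells exposed to compound for 60 hours before readout; potency for loss of cell viability measured by luminescence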
INS1 = assay: INS-1E survival protection against cytokine death – cell-based, luminescence, retest, dose response (AID 449756); format: functional; settings: Rattus norvegicus;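 note: cell death triggered by IL-1 beta plus TNF-alpha plus IFN-gamma mixture; protective hits raise ATP signal compared with cytokine alone wells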
[13] = NIH3T3 cell viability loss – ATP luminescence, mouse fibroblasts, counter-screen, dose response (AID 2010); format: functional, cell-based;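 note: cells exposed to compound for about 90 hours before reading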
[14] = blockers of HIV-1 ZM109 envelope-driven cell-cell fusion – HeLa effector, CEM target cells, luciferase, cherry-pick, dose response (AID 652058); format: functional, cell-based;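 note: luciferase signal from HIV-1 Env mediated cell-cell fusion of effector and target cells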
Protein Wnt-3a = Protein Wnt-3a (Mus musculus, UniProt P27467); assay: SAR analysis of small molecule antagonists of Gli-SUFU in a Wnt3a luminescent reporter assay.; format: functional
Protein Wnt-3a, sequence (P27467 whole entry): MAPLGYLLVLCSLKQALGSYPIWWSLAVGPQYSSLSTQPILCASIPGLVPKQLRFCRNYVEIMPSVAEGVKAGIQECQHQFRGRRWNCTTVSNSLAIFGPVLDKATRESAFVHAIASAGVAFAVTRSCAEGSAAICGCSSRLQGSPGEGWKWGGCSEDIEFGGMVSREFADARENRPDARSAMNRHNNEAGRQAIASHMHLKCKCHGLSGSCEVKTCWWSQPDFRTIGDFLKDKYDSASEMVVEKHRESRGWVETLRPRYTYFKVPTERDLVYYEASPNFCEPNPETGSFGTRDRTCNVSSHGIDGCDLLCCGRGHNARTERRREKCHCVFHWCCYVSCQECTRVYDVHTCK

[15] = OVCAR8 cell viability loss – plate reader, dry powder samples, PAX8 project, dose response (AID 743197); format: functional, cell-based; settings: OVCAR-8
Paired box protein Pax-8 = Paired box protein Pax-8 (Homo sapiens, UniProt Q06710); assay: PAX8 transcriptional activity inhibition in RMG-I – RMG-I cells, luciferase, cherry-pick, dose response (AID 687027); format: functional, cell-based;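 note: luciferase reporter driven by Pax8 target thyroperoxidase promoter measured by SteadyGlo luminescence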
Paired box protein Pax-8, sequence (Q06710 whole entry): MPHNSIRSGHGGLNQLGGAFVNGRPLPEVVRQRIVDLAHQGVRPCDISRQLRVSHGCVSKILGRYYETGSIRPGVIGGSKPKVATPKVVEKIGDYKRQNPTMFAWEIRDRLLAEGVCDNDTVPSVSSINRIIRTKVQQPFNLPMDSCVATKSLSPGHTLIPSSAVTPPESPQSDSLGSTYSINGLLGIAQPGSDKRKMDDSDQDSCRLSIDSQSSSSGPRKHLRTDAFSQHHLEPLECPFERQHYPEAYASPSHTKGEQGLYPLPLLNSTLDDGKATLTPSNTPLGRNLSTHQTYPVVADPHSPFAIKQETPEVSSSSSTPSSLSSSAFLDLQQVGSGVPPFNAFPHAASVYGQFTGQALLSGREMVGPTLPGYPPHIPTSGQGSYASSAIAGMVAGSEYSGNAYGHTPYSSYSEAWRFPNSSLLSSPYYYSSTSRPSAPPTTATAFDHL

[16] = lung carcinoma cell viability loss – CellTiter-Glo luminescence, dry powder, set 17, dose response (AID 1117284); format: functional, cell-based; settings: A549
cells [17] = assay: cells
[18] = biological target: COUP transcription factor 2 (Homo sapiens, UniProt P24468); assay: Luminescence-based cell-based high throughput dose response assay to identify inhibitors of COUP-TFII (NR2F2).; format: functional;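 note: HEK293 cells transiently cotransfected with COUP-TFII expression vector and reporter; luciferase reporter luminescence driven by COUP-TFII from the pX2-168 reporter plasmid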
COUP transcription factor 2, sequence (P24468 whole entry): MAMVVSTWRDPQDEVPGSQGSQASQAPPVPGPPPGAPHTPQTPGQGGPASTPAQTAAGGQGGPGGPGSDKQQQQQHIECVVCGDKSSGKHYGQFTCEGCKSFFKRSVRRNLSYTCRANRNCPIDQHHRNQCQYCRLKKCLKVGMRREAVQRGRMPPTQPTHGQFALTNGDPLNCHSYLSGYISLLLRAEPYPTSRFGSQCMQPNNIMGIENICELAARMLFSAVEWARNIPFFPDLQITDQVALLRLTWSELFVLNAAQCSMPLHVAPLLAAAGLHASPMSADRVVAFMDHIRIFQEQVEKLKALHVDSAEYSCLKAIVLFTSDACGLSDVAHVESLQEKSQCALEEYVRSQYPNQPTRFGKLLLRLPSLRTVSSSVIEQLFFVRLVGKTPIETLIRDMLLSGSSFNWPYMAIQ

HEK293 [19] = assay: cells; format: functional, cell-based; settings: Homo sapiens
[20] = loss of viability in HepG2 cells – cell-based, CellTiter-Glo, cherry-picked, cytotoxicity control for Shn3 inhibitor project, dose response (AID 624134); format: functional
[21] = HEK-293T viability loss after treatment – luminescence, T-cell screen hits, cytotoxicity control for TCR NF-kB inhibitor project, dose response (AID 489026); format: functional, cell-based;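 note: cells exposed to compound about 14 hours before the viability readout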
[22] = reduction of Shn3 3'UTR-driven luciferase in osteoblasts – cell-based, Clone20 osteoblasts, firefly luciferase, cherry-picked, dose response (AID 624132); format: functional;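 note: firefly luciferase luminescence from reporter carrying the Shn3 3'UTR in osteoblasts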
[23] = non-specific 3'UTR reporter inhibition in Clone20-Shn3RL – cell-based, Renilla luciferase, cherry-picked, counter-screen for Shn3 inhibitor project, dose response (AID 624133); format: functional
HEK293 [24] = assay: cells; format: functional, cell-based; settings: Homo sapiens; remark: listed apart in the source
HEK293 [25] = assay: NOD2 signaling inhibitors in MDP-stimulated cells, cell-based, uHTS, luminescence (AID 2001); format: functional; settings: Homo sapiens
HEK293 [26] = assay: inhibition of NOD1-driven NF-kB reporter – cell-based, luminescence, uHTS, primary screen (AID 1578); format: functional; settings: Homo sapiens
Bcl-2-like protein 10 = biological target: T2, Bcl-2-like protein 10 (Homo sapiens, UniProt Q9HD36); assay: Concentration-response of Bcl-B inhibitors by biochemical FP with TR3 (AID 1243); format: functional
T2 sequence (Q9HD36 whole entry): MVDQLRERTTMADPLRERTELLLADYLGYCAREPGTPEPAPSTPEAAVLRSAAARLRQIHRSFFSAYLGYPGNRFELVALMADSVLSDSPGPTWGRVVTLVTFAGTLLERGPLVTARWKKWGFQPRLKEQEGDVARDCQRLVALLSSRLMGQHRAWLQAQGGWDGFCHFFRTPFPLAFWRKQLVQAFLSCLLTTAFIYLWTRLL

Cytochrome P450 2C19 = Cytochrome P450 2C19 (Homo sapiens, UniProt P33261); assay: Cytochrome panel assay with activity outcomes. Panel member name: p450-cyp2c19 Compounds with AC50 equal or less than 10 uM are considered active; format: functional; settings: read-out: AC50
Cytochrome P450 2C19, sequence (P33261 whole entry): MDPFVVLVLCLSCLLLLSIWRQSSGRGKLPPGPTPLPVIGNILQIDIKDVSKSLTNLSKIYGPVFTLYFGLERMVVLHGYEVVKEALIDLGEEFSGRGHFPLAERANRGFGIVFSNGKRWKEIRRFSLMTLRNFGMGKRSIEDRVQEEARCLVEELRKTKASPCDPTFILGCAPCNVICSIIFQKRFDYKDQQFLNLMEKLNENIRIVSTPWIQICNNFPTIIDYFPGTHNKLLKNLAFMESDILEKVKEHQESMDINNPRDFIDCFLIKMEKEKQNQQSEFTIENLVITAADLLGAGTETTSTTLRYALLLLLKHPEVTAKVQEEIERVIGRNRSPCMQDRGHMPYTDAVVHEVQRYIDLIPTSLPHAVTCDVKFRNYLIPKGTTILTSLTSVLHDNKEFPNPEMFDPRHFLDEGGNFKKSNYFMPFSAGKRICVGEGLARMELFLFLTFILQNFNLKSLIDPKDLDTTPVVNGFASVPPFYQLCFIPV

cells [27] = format: functional, cell-based; settings: INS-1E
Cytochrome P450 1A2 = biological target: T3, Cytochrome P450 1A2 (Homo sapiens, UniProt P05177);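 note: PubChem cytochrome P450 panel assay, CYP1A2 panel member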
T3 sequence (P05177 whole entry): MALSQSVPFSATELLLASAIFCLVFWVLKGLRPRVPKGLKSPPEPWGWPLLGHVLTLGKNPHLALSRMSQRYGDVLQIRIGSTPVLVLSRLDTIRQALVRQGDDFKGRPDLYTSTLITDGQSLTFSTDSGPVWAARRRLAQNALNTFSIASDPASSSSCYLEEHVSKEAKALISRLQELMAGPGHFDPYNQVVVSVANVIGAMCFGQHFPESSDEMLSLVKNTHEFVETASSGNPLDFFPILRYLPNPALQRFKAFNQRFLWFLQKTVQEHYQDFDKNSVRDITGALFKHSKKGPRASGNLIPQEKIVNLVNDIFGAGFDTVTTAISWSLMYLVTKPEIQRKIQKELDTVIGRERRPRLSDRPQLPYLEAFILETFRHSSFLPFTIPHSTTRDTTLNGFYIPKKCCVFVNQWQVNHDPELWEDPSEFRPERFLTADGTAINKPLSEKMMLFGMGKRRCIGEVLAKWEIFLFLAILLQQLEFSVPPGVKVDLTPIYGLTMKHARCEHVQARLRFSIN

[28] = IC50 of insulin release inhibition, rat insulinoma INS-1E line, 5 mM glucose, cell-based (AID 1117331); format: functional
NS3 = NS3 (Hepatitis C virus, UniProt A3EZJ3); assay: PubChem AID 2173; design: species or system Hepacivirus hominis
NS3, sequence (A3EZJ3 whole entry): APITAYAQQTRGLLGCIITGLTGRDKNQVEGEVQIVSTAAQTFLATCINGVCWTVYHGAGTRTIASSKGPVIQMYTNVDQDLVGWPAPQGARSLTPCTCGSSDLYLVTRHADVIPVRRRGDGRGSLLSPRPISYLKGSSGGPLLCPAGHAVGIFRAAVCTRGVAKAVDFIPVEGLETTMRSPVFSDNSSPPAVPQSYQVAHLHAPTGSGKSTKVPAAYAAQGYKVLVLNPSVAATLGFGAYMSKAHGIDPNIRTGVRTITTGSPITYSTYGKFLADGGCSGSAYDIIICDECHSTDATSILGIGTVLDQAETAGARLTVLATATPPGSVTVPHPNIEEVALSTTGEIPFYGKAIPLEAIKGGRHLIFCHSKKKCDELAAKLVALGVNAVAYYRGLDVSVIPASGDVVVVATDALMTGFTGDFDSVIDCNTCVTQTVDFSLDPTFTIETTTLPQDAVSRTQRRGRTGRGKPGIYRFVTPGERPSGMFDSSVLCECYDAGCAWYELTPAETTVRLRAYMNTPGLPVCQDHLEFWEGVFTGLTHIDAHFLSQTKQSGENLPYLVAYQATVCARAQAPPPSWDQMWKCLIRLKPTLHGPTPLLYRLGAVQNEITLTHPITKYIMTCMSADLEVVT

Genome polyprotein = Genome polyprotein (dengue virus type 2, UniProt P29990); assay: flavivirus cap methylation enzyme inhibition – biochemical, confirmation dose response, primary screen (AID 588689); format: functional
Genome polyprotein, sequence (P29990 2492-3391 limits assumed): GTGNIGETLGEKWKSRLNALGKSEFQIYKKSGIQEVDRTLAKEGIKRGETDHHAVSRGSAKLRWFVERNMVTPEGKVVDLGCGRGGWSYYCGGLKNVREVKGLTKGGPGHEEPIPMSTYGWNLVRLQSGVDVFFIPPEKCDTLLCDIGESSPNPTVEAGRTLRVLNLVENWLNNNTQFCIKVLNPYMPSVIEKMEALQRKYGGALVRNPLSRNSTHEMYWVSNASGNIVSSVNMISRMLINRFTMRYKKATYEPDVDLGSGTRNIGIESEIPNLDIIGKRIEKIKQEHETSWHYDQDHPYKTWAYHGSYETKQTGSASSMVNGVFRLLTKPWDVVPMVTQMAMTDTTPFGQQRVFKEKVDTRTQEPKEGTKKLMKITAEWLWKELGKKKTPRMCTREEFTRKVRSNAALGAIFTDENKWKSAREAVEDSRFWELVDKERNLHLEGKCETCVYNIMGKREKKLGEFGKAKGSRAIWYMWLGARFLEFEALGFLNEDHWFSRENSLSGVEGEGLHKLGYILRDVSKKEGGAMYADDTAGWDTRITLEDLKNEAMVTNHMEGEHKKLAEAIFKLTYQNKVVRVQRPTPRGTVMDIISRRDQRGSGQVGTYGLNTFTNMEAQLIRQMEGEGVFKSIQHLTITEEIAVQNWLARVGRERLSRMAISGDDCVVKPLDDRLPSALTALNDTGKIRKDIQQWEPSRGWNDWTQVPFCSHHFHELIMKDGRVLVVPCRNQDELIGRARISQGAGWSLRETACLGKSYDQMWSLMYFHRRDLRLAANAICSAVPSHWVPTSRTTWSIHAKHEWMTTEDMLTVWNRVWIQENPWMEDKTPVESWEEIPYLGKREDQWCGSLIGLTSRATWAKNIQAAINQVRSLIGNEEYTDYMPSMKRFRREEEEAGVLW

Transitional endoplasmic reticulum ATPase (Homo sapiens, UniProt P55072), sequence (P55072 whole entry): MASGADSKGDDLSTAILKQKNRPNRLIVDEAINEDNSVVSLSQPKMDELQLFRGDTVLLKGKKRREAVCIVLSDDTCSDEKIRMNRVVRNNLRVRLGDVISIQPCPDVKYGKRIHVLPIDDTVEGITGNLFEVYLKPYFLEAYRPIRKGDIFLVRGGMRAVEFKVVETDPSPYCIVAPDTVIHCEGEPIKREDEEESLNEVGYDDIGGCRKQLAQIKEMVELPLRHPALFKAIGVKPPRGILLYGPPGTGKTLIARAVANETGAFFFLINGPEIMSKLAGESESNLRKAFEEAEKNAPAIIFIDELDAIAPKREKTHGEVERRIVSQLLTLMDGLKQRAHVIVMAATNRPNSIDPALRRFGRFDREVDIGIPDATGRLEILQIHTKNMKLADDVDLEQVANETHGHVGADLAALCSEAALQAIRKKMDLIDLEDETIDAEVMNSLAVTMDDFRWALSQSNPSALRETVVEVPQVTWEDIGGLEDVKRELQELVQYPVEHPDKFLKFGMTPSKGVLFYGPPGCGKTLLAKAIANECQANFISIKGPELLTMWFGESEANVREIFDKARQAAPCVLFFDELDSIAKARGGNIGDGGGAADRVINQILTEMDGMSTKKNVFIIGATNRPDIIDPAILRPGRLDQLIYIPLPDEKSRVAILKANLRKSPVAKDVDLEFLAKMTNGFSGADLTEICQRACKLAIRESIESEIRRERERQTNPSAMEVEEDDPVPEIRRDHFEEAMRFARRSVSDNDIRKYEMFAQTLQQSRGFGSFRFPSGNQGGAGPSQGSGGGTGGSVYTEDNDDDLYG

Q: For Cc1cc(-c2csc(Nc3ccc(C#N)cc3)n2)c(C)n1CCc1ccccc1, which IC50 [1] is on record?
A: > 50 µM (not active)

Q: What about the IC50 [2] of the same compound?
A: > 50 µM (not active)

Q: With CN(C)C(=O)c1ccc(-c2ccc([C@H]3[C@H](CO)N4CCCCN(CC5CC5)C[C@@H]34)cc2)cc1 as the compound, how does the AC50 [3] read?
A: 2.74 µM (active)

Q: What does the source list for Cc1ccc(Nc2cc(C)nc(NCc3ccccc3)n2)cc1?
A: AC50 [4]: 4.77 µM (active); AC50 [5]: 6.3 µM (active); AC50 [6]: 7.54 µM (active); IC50 [7]: > 20 µM (inactive); EC50 [8]: 0.255 µM (active); AC50 [9]: 4.04 µM (active); EC50 [10]: 6.62 µM (active); AC50 [11]: 17.2 µM (active); EC50 [12]: 7.18 µM (active); AC50 (INS1): 3.94 µM (active); EC50 [13]: > 60 µM (inconclusive); AC50 [14]: 4.51 µM (active)

Q: Which IC50 (Protein Wnt-3a) does the source give for CN(C)c1cc(NC(=O)c2ccccc2)ncn1 here?
A: > 21.8 µM (inactive)

Q: For C[C@@H]1CN([C@@H](C)CO)S(=O)(=O)c2ccc(C#C[C@@H](C)O)cc2O[C@@H]1CN(C)Cc1ccc(-c2ccccc2)cc1, which AC50 [15] is on record?
A: > 70 µM (inactive)

Q: What about the AC50 (Paired box protein Pax-8) of the same compound?
A: 12.3 µM (active)

Q: And the AC50 [16]?
A: > 52 µM (inactive)

Q: For COc1ccc(C2=Nn3c([n+](C)c4ccccc43)SC2)cc1, which EC50 (cells [17]) is on record?
A: 0.087 µM (active)

Q: And the IC50 [18]?
A: 5.66 µM (active)

Q: And the IC50 (HEK293 [19])?
A: 12.2 µM (active)

Q: And the AC50 [20]?
A: > 70 µM (inactive)

Q: What about the IC50 [21] of the same compound?
A: > 80 µM (inactive)

Q: And the EC50 [8]?
A: < 0.1 µM (active)

Q: What about the AC50 [22] of the same compound?
A: 1.16 µM (active)

Q: What about the AC50 (INS1) of the same compound?
A: 1.54 µM (active)

Q: What about the AC50 [23] of the same compound?
A: 3.2 µM (active)

Q: What about the IC50 (HEK293 [24]) of the same compound?
A: > 20 µM (inactive)

Q: What about the EC50 [13] of the same compound?
A: > 60 µM (not active)

Q: What about the IC50 (HEK293 [25]) of the same compound?
A: 13 µM (inactive)

Q: And the EC50 (HEK293 [26])?
A: 11.1 µM (active)

Q: Which EC50 (Bcl-2-like protein 10) does the source give for COc1cc(N)ccc1-n1c(C)ccc1C here?
A: 32.9 µM (active)

Q: For N=C(N)NCCC[C@H](N)C(=O)O [ARGININE], which AC50 (Cytochrome P450 2C19) is on record?
A: 10 µM (inconclusive)

Q: And the IC50 (cells [27])?
A: > 33.3 µM (inactive)

Q: And the AC50 (Cytochrome P450 1A2)?
A: 31.6 µM (inconclusive)

Q: And the IC50 [28]?
A: > 33.3 µM (inactive)

Q: For CC1=C(C#N)c2nc(N)c(C#N)c(C)c2/C1=C/c1ccc(-c2ccc(C(=O)O)c(Cl)c2)o1, which EC50 (Bcl-2-like protein 10) is on record?
A: 1.65 µM (active)

Q: Which IC50 [1] does the source give for CCOC(=O)/C(C#N)=C/c1ccc(F)cc1[N+](=O)[O-] here?
A: > 50 µM (not active)

Q: What about the IC50 [2] of the same compound?
A: > 50 µM (not active)

Q: For Cc1cc(N2C(=O)C(O)=C(C(=O)c3ccco3)C2c2cccc(Oc3ccccc3)c2)no1 (configuration not stated), which IC50 (NS3) is on record?
A: 2.64 µM (active)

Q: What about the IC50 (Genome polyprotein) of the same compound?
A: 64.6 µM (active)
